Laboratory results from patent US9518065B2, “IRAK inhibitors and uses thereof” (NIMBUS IRIS, INC., priority 2013, dated 2016).
pIC50: −log10 of the molar value. Like-named read-outs stand apart in the source and are kept apart here.

Experiments:
IRAK4 = target: T1, IRAK4 (Homo sapiens, UniProt Q9NWZ3); test: IRAK-4 activity inhibition assay (Caliper); type: biochemical; settings: 3.5 nM IRAK4, 37 μM ATP, 1.5 μM Peptide 8
T1 construct: purchased CARNA Bioscience 09-145
T1 sequence (Q9NWZ3 1-460): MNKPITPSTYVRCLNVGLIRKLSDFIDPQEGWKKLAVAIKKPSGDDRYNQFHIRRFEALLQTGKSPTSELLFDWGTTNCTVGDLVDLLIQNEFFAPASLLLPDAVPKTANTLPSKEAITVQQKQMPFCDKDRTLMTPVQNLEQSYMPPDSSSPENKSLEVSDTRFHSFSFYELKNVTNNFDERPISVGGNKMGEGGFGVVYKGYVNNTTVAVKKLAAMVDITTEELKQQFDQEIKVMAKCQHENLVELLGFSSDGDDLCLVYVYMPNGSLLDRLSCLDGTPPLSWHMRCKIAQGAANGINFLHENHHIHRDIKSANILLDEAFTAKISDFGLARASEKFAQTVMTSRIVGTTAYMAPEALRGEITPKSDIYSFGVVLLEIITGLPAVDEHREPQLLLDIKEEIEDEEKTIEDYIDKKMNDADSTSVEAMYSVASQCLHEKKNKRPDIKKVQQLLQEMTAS
Description: A 1× kinase base buffer was prepared from 50 mM HEPES, pH 7.5 and 0.0015% Brij-35. A stop buffer was prepared from 100 mM HEPES, pH 7.5, 0.015% Brij-35, 0.2% Coating Reagent #3, and 50 mM EDTA.
Test compound was diluted to 50× of the final desired highest inhibitor concentration in reaction by 100% DMSO. 100 ul of this compound dilution was transferred to a well in a 96-well plate. For example, if desired highest inhibitor concentration in IC50 determination is 100 uM, then prepare 5000 uM of compound DMSO solution in this step.
Test compound was serially diluted by transferring 30 μl to 60 μl of 100% DMSO in the next well and so forth for a total of 10 concentrations. 100 μl of 100% DMSO was added to two empty wells for no compound control and no enzyme control in the same 96-well plate.
A new 96-well plate was marked as intermediate plate. 5 μl of compound serial dilution was transferred from source plate to the corresponding wells of the intermediate plate. 45 μl of 1× kinase base buffer (KB buffer) was added to each well of the intermediate plate. The intermediate plate was placed for 10 min on a shaker.
5 μl of each well was transferred from the 96-well intermediate plate to a 384-well plate in duplicates. For example, A1 of the 96-well plate is transferred to A1 and A2 of the 384-well plate. A2 of the 96-well plate is transferred to A3 and A4 of the 384-well plate, and so on.
IRAK4 and DTT in 1× kinase base buffer was added. The 2.5× enzyme mix contained 8.8 nM IRAK4 and 5 mM DTT.
Peptide 8, ATP, MgCl2 and MnCl2 were added in the 1× kinase base buffer. The 2.5× peptide mix contained 3.75 μM peptide 8, 92.5 μM ATP, 12.5 mM MgCl2 and 2.5 mM MnCl2.
Assay plate already contained 5 μl of compound in 10% DMSO. Added 10 μl of 2.5× enzyme solution to each well of the 384-well assay plate, except no enzyme control wells. The final concentration of IRAK4 in reaction was 3.5 nM. Added 10 μl of 1× kinase base buffer to no enzyme control wells in the assay plate. Incubated at room temperature for 10 min.
Added 10 μl of 2.5× peptide solution to each well of the 384-well assay plate. The final concentration of Peptide 8 and ATP was 1.5 μM and 37 μM, respectively. Incubated at 28° C. for 40 minutes. Added 25 μl of stop buffer to stop reaction. Collected data on Caliper.
Copied conversion % data from Caliper program. Converted conversion % values to percent inhibition values. Percent inhibition=(max-conversion %)/(max-min)*100, where “max” means the conversion % of DMSO control and “min” means the conversion % of no enzyme control.
The compound numbers correspond to the compound numbers in Table 1. Compounds having an activity designated as “A” provided an IC50≦1 μM; compounds having an activity designated as “B” provided an IC50 of 1-5 μM; compounds having an activity designated as “C” provided an IC50 of ≧5 μM. “NA” stands for “not assayed.”

[1] = system: TNFα and IL8 production in THP-1 cells; test: LPS induced cytokine (TNFα and IL8) production assay in THP-1 cells; type: cell-based; settings: Homo sapiens, 300 ng/mL LPS
Description: Provided compounds were also assayed in an LPS (Lipopolysacharide) or R848 (TLR-7 agonist) induced cytokine (TNFα and IL8) production assay in THP-1 cells, human white blood cells (hWBC), and whole blood. The exemplary protocol for this assay in THP-1 cells was as follows below.
THP-1 cells from ATCC (TIB-202) were cultured in RPMI Medium 1640 (Invitrogen, Cat No. A10491-01), 10% fetal bovine serum (Invitrogen, Cat No. 10099141, Lot No. 8172882) containing 100 U/mL Penicillin, 100 μg/mL streptomycin (Invitrogen, Cat No. 15140-122), and 50 uM 2-Mercaptoethanol (Invitrogen, Cat No. 21985023). LPS-EK ultra pure (Invivogen, Cat No. tlrl-peklps) was used to induce IL8 and TNFα production, that was detected in the cell culture supernatant by IL8 HTRF kit (Cisbio, Cat No. 62IL8PEB) and TNFα HTRF kit (Cisbio, Cat No. 62TNFPEB), as per manufacturer instructions. Cells were cultured in 96 well assay plates at 100,000 cells per well, and compounds diluted in final 0.3% DMSO were pre-incubated with cells for 1 hour prior to stimulation with 300 ng/mL LPS. Cytokine production in cell supernatant was measured at 5 hours for TNFα and IL8 production, and for 16 hours for IL8 production and assessment of cell viability.
The compound numbers correspond to the compound numbers in Table 1. […] “NA” stands for “not assayed.”

[2] = 5 hours, read-out: TNFα production IC50
[3] = 16 hours, read-out: IL8 (16 h) production IC50

pIC50 (IRAK4)	pIC50 [1, 2]	pIC50 [1, 3]	SMILES
≥ 6.00	≥ 6.60	≥ 6.60	CCc1nc2c(O[C@H]3CC[C@H](N4CCOCC4)CC3)nc(Nc3cnn(C4CCOCC4)c3)nc2s1 [Compound I-26, 2-ethyl-7-(((1r,4r)-4-morpholinocyclohexyl)oxy)-N-(1-(tetrahydro-2H-pyran-4-yl)-1H-pyrazol-4-yl)thiazolo[5,4-d]pyrimidin-5-amine]
≥ 6.00	≥ 6.60	≥ 6.60	CCc1nc2c(N[C@H]3CC[C@H](N4CCC5(CC4)CC5)CC3)nc(Nc3cnn(CCOCCO)c3)nc2s1 [Compound I-33, 2-(2-(4-((7-(((1r,4r)-4-(6-azaspiro[2.5]octan-6-yl)cyclohexyl)-amino)-2-ethylthiazolo[5,4-d]pyrimidin-5-yl)amino)-1H-pyrazol-1-yl)ethoxy)ethan-1-ol]
≥ 6.00	6.30 to 6.60	≥ 6.60	CCn1cc(Nc2nc(N[C@H]3CC[C@H](N4CCOCC4)CC3)c3nc(C)sc3n2)cn1 [Compound I-36, N5-(1-ethyl-1H-pyrazol-4-yl)-2-methyl-N7-((1r,4r)-4-morpholinocyclohexyl)thiazolo[5,4-d]pyrimidine-5,7-diamine]
≥ 6.00	≥ 6.60	≥ 6.60	Cc1nc2c(N[C@H]3CC[C@H](N4CCOCC4)CC3)nc(Nc3cnn(C4CCOCC4)c3)nc2s1 [Compound I-25, 2-methyl-N7-((1r,4r)-4-morpholinocyclohexyl)-N5-(1-(tetrahydro-2H-pyran-4-yl)-1H-pyrazol-4-yl)thiazolo[5,4-d]pyrimidine-5,7-diamine]
≥ 6.00	≥ 6.60	–	CCc1nc2c(N[C@H]3CC[C@H](N4CCC(F)(F)CC4)CC3)nc(Nc3cnn(C4CCOCC4)c3)nc2s1 [Compound I-19, 2-ethyl-5-N-[1-(oxan-4-yl)-1H-pyrazol-4-yl]-7-N-[trans-4-(4,4-difluoropiperidin-1-yl)cyclohexyl]-[1,3]thiazolo[5,4-d]pyrimidine-5,7-diamine]
≥ 6.00	≥ 6.60	≥ 6.60	CCc1nc2c(N[C@H]3CC[C@H](N4CCC5(CC4)COC5)CC3)nc(Nc3cnn(C4CCOCC4)c3)nc2s1 [Compound I-14, N7-((1r,4r)-4-(2-oxa-7-azaspiro[3.5]nonan-7-yl)cyclohexyl)-2-ethyl-N5-(1-(tetrahydro-2H-pyran-4-yl)-1H-pyrazol-4-yl)thiazolo[5,4-d]pyrimidine-5,7-diamine]
≥ 6.00	6.30 to 6.60	≥ 6.60	CCc1nc2c(N[C@H]3CC[C@H](N4CCOCC4)CC3)nc(Nc3cnn(CCOCCO)c3)nc2s1 [Compound I-28, 2-(2-(4-((2-ethyl-7-(((1r,4r)-4-morpholinocyclohexyl)amino)thia-zolo[5,4-d]pyrimidin-5-yl)amino)-1H-pyrazol-1-yl)ethoxy)ethan-1-ol]
≥ 6.00	≥ 6.60	6.30 to 6.60	Cc1nc2c(N[C@H]3CC[C@H](N4CCOCC4)CC3)nc(Nc3cnn(CCS(C)(=O)=O)c3)nc2s1 [Compound I-40, 2-methyl-N5-(1-(2-(methylsulfonyl)ethyl)-1H-pyrazol-4-yl)-N7-((1r,4r)-4-morpholinocyclohexyl)thiazolo[5,4-d]pyrimidine-5,7-diamine]
≥ 6.00	≥ 6.60	≥ 6.60	CCc1nc2c(N[C@H]3CC[C@H](N4CCOCC4)CC3)nc(Nc3cnn(C4CCC(O)CC4)c3)nc2s1 (stereo partly shown) [Compound I-32, 4-(4-((2-ethyl-7-(((1r,4r)-4-morpholinocyclohexyl)-amino)thiazolo[5,4-d]pyrimidin-5-yl)amino)-1H-pyrazol-1-yl)cyclohexan-1-ol]
≥ 6.00	6.30 to 6.60	6.30 to 6.60	Cc1nc2c(N[C@H]3CC[C@H](N4CCC5(CC4)COC5)CC3)nc(Nc3cnn(C)c3)nc2s1 [Compound I-42, N7-((1r,4r)-4-(2-oxa-7-azaspiro[3.5]nonan-7-yl)cyclohexyl)-2-methyl-N5-(1-methyl-1H-pyrazol-4-yl)thiazolo[5,4-d]pyrimidine-5,7-diamine]
≥ 6.00	6.30 to 6.60	6.30 to 6.60	CCc1nc2c(N[C@H]3CC[C@@H](N4CCC(F)(F)CC4)CC3)nc(Nc3cnn(C)c3)nc2s1 [Compound I-12, N7-((1s,4s)-4-(4,4-difluoropiperidin-1-yl)cyclohexyl)-2-ethyl-N5-(1-methyl-4H-pyrazol-4-yl)thiazolo[5,4-d]pyrimidine-5,7-diamine]
≥ 6.00	≥ 6.60	–	CCc1nc2c(N[C@H]3CC[C@H](N4CCC(O)CC4)CC3)nc(Nc3cnn(C)c3)nc2s1 [Compound I-17, 1-((1r,4r)-4-((2-ethyl-5-((1-methyl-1H-pyrazol-4-yl)amino)-thiazolo[5,4-d]pyrimidin-7-yl)amino)cyclohexyl)piperidin-4-ol]
≥ 6.00	≤ 6.30	≥ 6.60	CCc1nc2c(N[C@H]3CC[C@H](N4CCOCC4)CC3)nc(Nc3cnn(CCO)c3)nc2s1 [Compound I-29, 2-(4-((2-ethyl-7-(((1r,4r)-4-morpholinocyclohexyl)-amino)thiazolo[5,4-d]pyrimidin-5-yl)amino)-1H-pyrazol-1-yl)ethan-1-ol]
≥ 6.00	≥ 6.60	≥ 6.60	CCc1nc2c(N[C@H]3CC[C@H](N4CCOCC4)CC3)nc(Nc3cnn(C(C)C)c3)nc2s1 [Compound I-8, 2-ethyl-N5-(1-isopropyl-1H-pyrazol-4-yl)-N7-((1r,4r)-4-morpholinocyclohexyl)thiazolo[5,4-d]pyrimidine-5,7-diamine]
≥ 6.00	6.30 to 6.60	≥ 6.60	CCc1nc2c(N[C@H]3CC[C@H](N4CCOCC4)CC3)nc(Nc3cnn(CC)c3)nc2s1 [Compound I-22, 2-ethyl-N5-(1-ethyl-1H-pyrazol-4-yl)-N7-((1r,4r)-4-morpholino-cyclohexyl)thiazolo[5,4-d]pyrimidine-5,7-diamine]
≥ 6.00	6.30 to 6.60	≥ 6.60	CCc1nc2c(N[C@H]3CC[C@H](N4CCOCC4)CC3)nc(Nc3cnn(CCCS(C)(=O)=O)c3)nc2s1 [Compound I-27, 2-ethyl-N5-(1-(3-(methylsulfonyl)propyl)-1H-pyrazol-4-yl)-N7-((1r,4r)-4-morpholinocyclohexyl)thiazolo[5,4-d]pyrimidine-5,7-diamine]
